± gives the expanded uncertainty stated by the source.
Assay: molar heat capacity at saturation pressure; xn = mol fraction of the nth substance listed

CCCCn1cc[n+](C)c1.Cc1ccc(S(=O)(=O)[O-])cc1 [1-butyl-3-methylimidazolium tosylate] + O
Settings | molar heat capacity [J/K/mol]
187.71 K, Metastable crystal, x1 = 0.83 | 257.58 ± 2.6
188.37 K, Crystal, x1 = 0.37 | 129.48 ± 1.5
189.01 K, Crystal, x1 = 0.3 | 108.8 ± 1.3
189.44 K, Crystal, x1 = 0.83 | 237.24 ± 2.3
189.61 K, Metastable crystal, x1 = 0.83 | 259.14 ± 2.6
191.25 K, Crystal, x1 = 0.37 | 131.12 ± 1.5
191.41 K, Crystal, x1 = 0.83 | 240.11 ± 2.3
191.51 K, Metastable crystal, x1 = 0.83 | 260.97 ± 2.6
191.66 K, Crystal, x1 = 0.3 | 109.86 ± 1.4
193.36 K, Crystal, x1 = 0.83 | 244.28 ± 2.3
193.41 K, Metastable crystal, x1 = 0.83 | 262.79 ± 2.6
194.12 K, Crystal, x1 = 0.37 | 132.64 ± 1.5
194.31 K, Crystal, x1 = 0.3 | 111.02 ± 1.4
195.3 K, Crystal, x1 = 0.83 | 250.02 ± 2.3
195.31 K, Metastable crystal, x1 = 0.83 | 264.88 ± 2.6
196.95 K, Crystal, x1 = 0.3 | 112.29 ± 1.4
196.98 K, Crystal, x1 = 0.37 | 134.15 ± 1.5
197.21 K, Metastable crystal, x1 = 0.83 | 268.01 ± 2.6
197.23 K, Crystal, x1 = 0.83 | 254.97 ± 2.6
199.09 K, Metastable crystal, x1 = 0.83 | 272.44 ± 2.6
199.14 K, Crystal, x1 = 0.83 | 258.88 ± 2.6
199.58 K, Crystal, x1 = 0.3 | 113.66 ± 1.4
199.84 K, Crystal, x1 = 0.37 | 135.92 ± 1.5
201 K, Metastable crystal, x1 = 0.83 | 280.52 ± 2.6
201.17 K, Crystal, x1 = 0.83 | 262.53 ± 2.6
201.54 K, Crystal, x1 = 0.3 | 114.83 ± 1.4
201.97 K, Crystal, x1 = 0.37 | 137.43 ± 1.5
202.83 K, Crystal, x1 = 0.3 | 115.46 ± 1.4
202.96 K, Metastable crystal, x1 = 0.83 | 287.56 ± 2.9
203.32 K, Crystal, x1 = 0.83 | 264.88 ± 2.6
203.36 K, Crystal, x1 = 0.37 | 138.57 ± 1.5
204.12 K, Crystal, x1 = 0.3 | 115.99 ± 1.4
204.75 K, Crystal, x1 = 0.37 | 139.08 ± 1.5
204.92 K, Metastable crystal, x1 = 0.83 | 289.38 ± 2.9
205.4 K, Crystal, x1 = 0.3 | 116.63 ± 1.4
205.47 K, Crystal, x1 = 0.83 | 266.7 ± 2.6
206.15 K, Crystal, x1 = 0.37 | 140.46 ± 1.5
206.69 K, Crystal, x1 = 0.3 | 117.05 ± 1.4
206.89 K, Metastable crystal, x1 = 0.83 | 290.69 ± 2.9
207.55 K, Crystal, x1 = 0.37 | 141.22 ± 1.6
207.62 K, Crystal, x1 = 0.83 | 268.53 ± 2.6
207.98 K, Crystal, x1 = 0.3 | 117.58 ± 1.4
208.85 K, Metastable crystal, x1 = 0.83 | 291.99 ± 2.9
208.96 K, Crystal, x1 = 0.37 | 142.1 ± 1.6
209.26 K, Crystal, x1 = 0.3 | 118 ± 1.4
209.77 K, Crystal, x1 = 0.83 | 270.61 ± 2.6
210.37 K, Crystal, x1 = 0.37 | 142.86 ± 1.6
210.55 K, Crystal, x1 = 0.3 | 118.74 ± 1.4
210.81 K, Metastable crystal, x1 = 0.83 | 293.03 ± 2.9
211.79 K, Crystal, x1 = 0.37 | 143.62 ± 1.6
211.84 K, Crystal, x1 = 0.3 | 119.27 ± 1.4
211.92 K, Crystal, x1 = 0.83 | 272.7 ± 2.6
212.77 K, Metastable crystal, x1 = 0.83 | 294.34 ± 2.9
213.13 K, Crystal, x1 = 0.3 | 120.22 ± 1.4
213.22 K, Crystal, x1 = 0.37 | 144.25 ± 1.6
214.07 K, Crystal, x1 = 0.83 | 274.78 ± 2.6
214.41 K, Crystal, x1 = 0.3 | 121.91 ± 1.4
214.66 K, Crystal, x1 = 0.37 | 145.26 ± 1.6
214.74 K, Metastable crystal, x1 = 0.83 | 295.64 ± 2.9
215.69 K, Crystal, x1 = 0.3 | 123.6 ± 1.5
216.09 K, Crystal, x1 = 0.37 | 146.27 ± 1.6
216.21 K, Crystal, x1 = 0.83 | 276.87 ± 2.6
216.7 K, Metastable crystal, x1 = 0.83 | 296.68 ± 2.9
216.97 K, Crystal, x1 = 0.3 | 125.51 ± 1.5
217.52 K, Crystal, x1 = 0.37 | 148.16 ± 1.6
218.24 K, Crystal, x1 = 0.3 | 127.73 ± 1.5
218.36 K, Crystal, x1 = 0.83 | 278.69 ± 2.6
218.66 K, Metastable crystal, x1 = 0.83 | 297.99 ± 2.9
218.93 K, Crystal, x1 = 0.37 | 150.81 ± 1.6
219.5 K, Crystal, x1 = 0.3 | 130.37 ± 1.5
220.33 K, Crystal, x1 = 0.37 | 154.98 ± 1.6
220.5 K, Crystal, x1 = 0.83 | 280.78 ± 2.6
220.62 K, Metastable crystal, x1 = 0.83 | 299.29 ± 2.9
220.76 K, Crystal, x1 = 0.3 | 133.97 ± 1.5
221.7 K, Crystal, x1 = 0.37 | 161.54 ± 1.8
222 K, Crystal, x1 = 0.3 | 138.72 ± 1.6
222.58 K, Metastable crystal, x1 = 0.83 | 300.59 ± 2.9
222.65 K, Crystal, x1 = 0.83 | 282.87 ± 2.6
223.04 K, Crystal, x1 = 0.37 | 170.5 ± 1.8
223.23 K, Crystal, x1 = 0.3 | 144.64 ± 1.6
224.35 K, Crystal, x1 = 0.37 | 182.11 ± 1.9
224.44 K, Crystal, x1 = 0.3 | 151.62 ± 1.7
224.54 K, Metastable crystal, x1 = 0.83 | 301.9 ± 2.9
224.8 K, Crystal, x1 = 0.83 | 284.95 ± 2.9
225.63 K, Crystal, x1 = 0.3 | 159.55 ± 1.7
225.63 K, Crystal, x1 = 0.37 | 195.24 ± 2
226.5 K, Metastable crystal, x1 = 0.83 | 303.2 ± 2.9
226.79 K, Crystal, x1 = 0.3 | 169.18 ± 1.8
226.88 K, Crystal, x1 = 0.37 | 210.13 ± 2.1
226.96 K, Crystal, x1 = 0.83 | 286.78 ± 2.9
227.92 K, Crystal, x1 = 0.3 | 180.91 ± 1.9
228.08 K, Crystal, x1 = 0.37 | 225.52 ± 2.3
228.46 K, Metastable crystal, x1 = 0.83 | 304.76 ± 2.9
229.02 K, Crystal, x1 = 0.3 | 196.03 ± 2
229.14 K, Crystal, x1 = 0.83 | 288.6 ± 2.9
229.24 K, Crystal, x1 = 0.37 | 246.35 ± 2.4
230.06 K, Crystal, x1 = 0.3 | 216.44 ± 2.2
230.36 K, Crystal, x1 = 0.37 | 271.97 ± 2.7
230.42 K, Metastable crystal, x1 = 0.83 | 306.33 ± 2.9
231.05 K, Crystal, x1 = 0.3 | 243.4 ± 2.4
231.35 K, Crystal, x1 = 0.83 | 290.43 ± 2.9
231.41 K, Crystal, x1 = 0.37 | 306.67 ± 3
231.97 K, Crystal, x1 = 0.3 | 279.14 ± 2.9
232.38 K, Metastable crystal, x1 = 0.83 | 307.89 ± 2.9
232.4 K, Crystal, x1 = 0.37 | 350.72 ± 3.4
232.82 K, Crystal, x1 = 0.3 | 325.66 ± 3.3
233.32 K, Crystal, x1 = 0.37 | 386.68 ± 3.5
233.59 K, Crystal, x1 = 0.3 | 384.24 ± 3.9
233.59 K, Crystal, x1 = 0.83 | 291.21 ± 2.9
234.25 K, Crystal, x1 = 0.37 | 311.22 ± 3.5
234.29 K, Crystal, x1 = 0.3 | 455.08 ± 4.7
234.34 K, Metastable crystal, x1 = 0.83 | 309.46 ± 2.9
234.92 K, Crystal, x1 = 0.3 | 526.56 ± 4.9
235.39 K, Crystal, x1 = 0.37 | 181.61 ± 2.1
235.5 K, Crystal, x1 = 0.3 | 534.91 ± 5.8
235.86 K, Crystal, x1 = 0.83 | 290.16 ± 2.9
236.15 K, Crystal, x1 = 0.3 | 325.13 ± 5.4
236.31 K, Metastable crystal, x1 = 0.83 | 310.24 ± 2.9
236.7 K, Crystal, x1 = 0.37 | 181.73 ± 1.9
237.09 K, Crystal, x1 = 0.3 | 171.82 ± 2.3
238 K, Crystal, x1 = 0.37 | 183.25 ± 1.9
238.22 K, Crystal, x1 = 0.83 | 290.95 ± 2.9
238.25 K, Crystal, x1 = 0.3 | 170.34 ± 1.8
238.27 K, Metastable crystal, x1 = 0.83 | 311.54 ± 2.9
239.3 K, Crystal, x1 = 0.37 | 184.76 ± 1.9
239.4 K, Crystal, x1 = 0.3 | 171.4 ± 1.8
240.23 K, Metastable crystal, x1 = 0.83 | 313.11 ± 2.9
240.46 K, Crystal, x1 = 0.83 | 293.81 ± 2.9
240.56 K, Crystal, x1 = 0.3 | 172.98 ± 1.8
240.6 K, Crystal, x1 = 0.37 | 186.27 ± 1.9
241.71 K, Crystal, x1 = 0.3 | 174.78 ± 1.8
241.9 K, Crystal, x1 = 0.37 | 188.17 ± 2
242.19 K, Metastable crystal, x1 = 0.83 | 315.19 ± 2.9
242.68 K, Crystal, x1 = 0.83 | 297.2 ± 2.9
242.86 K, Crystal, x1 = 0.3 | 176.47 ± 1.9
243.19 K, Crystal, x1 = 0.37 | 189.93 ± 2
244.01 K, Crystal, x1 = 0.3 | 178.27 ± 1.9
244.14 K, Metastable crystal, x1 = 0.83 | 317.28 ± 2.9
244.48 K, Crystal, x1 = 0.37 | 191.7 ± 2
244.87 K, Crystal, x1 = 0.83 | 300.59 ± 2.9
245.15 K, Crystal, x1 = 0.3 | 179.96 ± 1.9
245.76 K, Crystal, x1 = 0.37 | 193.72 ± 2
246.08 K, Metastable crystal, x1 = 0.83 | 319.62 ± 3.1

Reference: the NIST ThermoML archive (doi:10.1021/je700152c)
